Experiment [1] concerns Leishmania donovani. The experiment can be described thus: Intramacrophage Leishmania donovani assay (Assay 1), average number of amastigotes per cell (potency readout). Type of experiment: cell-based. As to conditions: THP-1, 96 h, amastigotes in PMA-differentiated THP-1 macrophages, 96 h incubation, read-out: pEC50 value against Leishmania donovani (converted). The protocol:
Assay 1. Intramacrophage Leishmania donovani Assay
The intramacrophage Leishmania assay was performed using a modified version of the method described in De Rycker et al. (Antimicrob Agents Chemother. 2013 July; 57(7):2913-22. Comparison of a high-throughput high-content intracellular Leishmania donovani assay with an axenic amastigote assay. De Rycker M, Hallyburton I, Thomas J, Campbell L, Wyllie S, Joshi D, Cameron S, Gilbert I H, Wyatt P G, Frearson J A, Fairlamb A H, Gray D W.). Procedure: 350 nl of compound was pre-dispensed into 384 well sterile intermediary plates. For single point screening, amphotericin B was added to all wells of column 24 as a positive control (final concentration 2 μM) and DMSO to column 23. For potency determinations, ten-point, one in three dilution curves were created with the highest concentration being 50 μM and on each plate a control curve of amphotericin B was included. Controls were as follows: columns 11 and 12: DMSO, columns 23 and 24: amphotericin B (final concentration 2 μM). To the intermediary plates, 35 μl of THP-1 media was added and plates were shaken for >5 min to ensure complete mixing. THP-1 cells (8,000 per well, 50 μl) were plated into black clear-bottom 384 well plates (Corning) in presence of 20 nM PMA. After 20 min at RT, the plates were incubated at 37° C. under 5% CO2 in a humidified incubator for 75 h. The cells were then washed with […] sterile phosphate buffered saline (PBS) supplemented with 1 mM CaCl2, 0.5 mM MgCl2, 0.1% (w/v) bovine serum albumin (PBS-A) and amastigotes were added to all wells at a multiplicity of infection of 5 (40,000 amastigotes per well). After 40 min at RT, plates were returned to the incubator. Amastigotes were incubated in the presence of THP-1 macrophages for 16 h. Any remaining extracellular amastigotes were subsequently removed with an overflow wash of 1 mL PBS-A per well (wash buffer is being aspirated from the top of the well as it is being dispensed) followed by addition of 25 μl of the compound pre-dilutions using a Fluidx Ipette-pro pipetting station. The final dilution of each compound was 200-fold. Plates were incubated for 96 h and then washed (250 μl PBS-A) and fixed (4% (v/v) formaldehyde-PBS, 30 min, RT). After fixation, the wells were washed with 250 μl PBS, stained (10 μg/mL DAPI, 0.4 μg mL-1 HCS Cellmask Deep Red in PBS+0.1% (v/v) Triton X-100, 30 min, RT) and washed with 250 μl PBS. Finally, PBS+0.05% (v/v) thimerosal was added to the wells, the plates were sealed and imaged on a high-content microscope (GE IN Cell 2000) using a 10× objective. Image analysis was carried out with GE IN Cell Analyzer 1000 Workstation using the “Multi Target Analysis” module. Settings for segmentation were as follows: nuclei: minimum area: 142.384 μm2, sensitivity: 81, method: top-hat; cells: characteristic area: 2500 μm2, sensitivity: 60, method: multiscale top-hat; organelles (amastigotes): granule size 1-3, 3 scales, sensitivity: 90, detection in entire cell. For each well, i) THP-1 cell count (cytotoxicity readout) and ii) average number of amastigotes per cell (potency readout) were calculated, both in terms of pEC50 values.

The subject of experiment [2] is Leishmania donovani. The experiment can be described thus: Leishmania donovani intracellular assay (Assay 5). The note with it: THP-1, 96 h, eGFP amastigotes in THP-1 cells, 96 h incubation, read-out: pEC50 value against Leishmania donovani (converted). It is filed as cell-based. Here is the method: Assay 5. Leishmania donovani Intracellular Assay
Compounds were dispensed into black 384-well assay plates (Greiner) by acoustic dispensing (LabCyte ECHO). For potency determinations, eleven-point, one in three dilution curves were generated, with a top concentration of 50 μM. THP-1 human monocytes cells were dispensed in T225 tissue culture flasks and differentiated using 30 nM of PMA, after 24 hours they were infected overnight using Leishmania donovani expressing Green Fluorescent Protein (eGFP) amastigotes in the same T225 tissue culture flasks at a multiplicity of infection of 10. Next, any remaining free amastigotes were washed away with PBS and the infected THP-1 cells were harvested by trypsinisation. The infected cells were then plated into 384-well plates containing the compounds to be tested, at 3000 cells per well in RPMI media with 2% FBS and 25 mM Sodium bicarbonate. After 96 h incubation at 37° C. in presence of 5% CO2, the plates were fixed with 4% formaldehyde for 30 minutes, washed with PBS and stained with 0.1 mg/mL of DAPI for 30 minutes and washed again with PBS. The plates were imaged on a Perkin Elmer Opera high-content imaging system using a 20× air objective with two expositions, one for DAPI stain and other for eGFP. Images were analysed using the Acapella building blocks system (Perkin Elmer). The image analysis algorithm first identified the THP-1 nuclei followed by demarcation of the cytoplasm and identification of intracellular amastigotes. This algorithm reported mean number of parasites per THP-1 cell, the percentage of infected THP-1 cells and the total number of THP-1 cells.

The structures appear in SMILES notation.

On to `O=C(Nc1ccc(F)c(-c2ccn3c(N4CCCOCC4)cnc3n2)c1)N1CCCC1` [Example 22, N-(3-(3-(1,4-oxazepan-4-yl)imidazo[1,2-a]pyrimidin-7-yl)-4-fluorophenyl)pyrrolidine-1-carboxamide], for which the figures for the EC50 with Leishmania donovani [1] and in the experiment with Leishmania donovani [2] were 0.251 to 10 µM and 0.126 to 10 µM, respectively.

As to `O=C(Nc1ccc(F)c(-c2ccn3c(N4CCOCC4)cnc3n2)c1)N1CC(F)(F)C1` [Example 24, 3,3-difluoro-N-(4-fluoro-3-(3-morpholinoimidazo[1,2-a]pyrimidin-7-yl)phenyl)azetidine-1-carboxamide], the EC50 in the experiment on Leishmania donovani [1] is 0.251 to 10 µM; in the experiment with Leishmania donovani [2] it was 0.126 to 10 µM.

`O=C(Nc1ccc(F)c(-c2ccn3c(N4CCOCC4)cnc3n2)c1)N1CCC(F)(F)C1` [Example 25, 3,3-difluoro-N-(4-fluoro-3-(3-morpholinoimidazo[1,2-a]pyrimidin-7-yl)phenyl)pyrrolidine-1-carboxamide]: the values for the EC50 with Leishmania donovani [1] and in the experiment with Leishmania donovani [2] were 12.6 to 20 µM and 0.126 to 10 µM, respectively.

With `O=C(Nc1ccc(F)c(-c2ccn3c(-c4cnccn4)cnc3n2)c1)N1CCCC1` [Example 27, N-(4-fluoro-3-(3-(pyrazin-2-yl)imidazo[1,2-a]pyrimidin-7-yl)phenyl)pyrrolidine-1-carboxamide], the EC50 in the experiment with Leishmania donovani [1] was 0.251 to 10 µM; with Leishmania donovani [2] it was 0.126 to 10 µM.

Consider `CC1CN(c2cnc3nc(-c4cc(NC(=O)N5CCCC5)ccc4F)ccn23)CCO1` (stereo not drawn) [Example 29, N-(4-fluoro-3-(3-(2-methylmorpholino)imidazo[1,2-a]pyrimidin-7-yl)phenyl)pyrrolidine-1-carboxamide], for which the figures for the EC50 with Leishmania donovani [1] and in the experiment on Leishmania donovani [2] were 0.251 to 10 µM and 0.126 to 10 µM, respectively.

`C[C@@H]1CN(c2cnc3nc(-c4cc(NC(=O)N5CCCC5)ccc4F)ccn23)C[C@H](C)O1` [Example 30, N-(3-(3-((2S,6R)-2,6-dimethylmorpholino)imidazo[1,2-a]pyrimidin-7-yl)-4-fluorophenyl)pyrrolidine-1-carboxamide]: the EC50 was 0.251 to 10 µM in the experiment on Leishmania donovani [1] and 0.126 to 10 µM in the experiment on Leishmania donovani [2].

Take `CC1COCCN1c1cnc2nc(-c3cc(NC(=O)N4CCCC4)ccc3F)ccn12` (stereo not drawn) [Example 31, N-(4-fluoro-3-(3-(3-methylmorpholino)imidazo[1,2-a]pyrimidin-7-yl)phenyl)pyrrolidine-1-carboxamide]: the EC50 in the experiment with Leishmania donovani [1] was 0.251 to 10 µM; with Leishmania donovani [2], 0.126 to 10 µM.

For `O=C(Nc1ccc(F)c(-c2ccn3c(N4CCNCC4)cnc3n2)c1)N1CCCC1` [Example 32, N-(4-fluoro-3-(3-(piperazin-1-yl)imidazo[1,2-a]pyrimidin-7-yl)phenyl)pyrrolidine-1-carboxamide], the EC50 in the experiment with Leishmania donovani [1] was more than 50.1 µM; in the experiment with Leishmania donovani [2], 12.6 to 39.8 µM.

In the case of `C[C@@H]1CCCN1C(=O)Nc1ccc(F)c(-c2ccn3c(N4CCOCC4)cnc3n2)c1` [Example 33, N-(4-fluoro-3-(3-morpholinoimidazo[1,2-a]pyrimidin-7-yl)phenyl)-2-methylpyrrolidine-1-carboxamide], the EC50 with Leishmania donovani [1] was 0.251 to 10 µM; in the experiment with Leishmania donovani [2] it was 0.126 to 10 µM.

For `C[C@@H]1CCN(C(=O)Nc2ccc(F)c(-c3ccn4c(N5CCOCC5)cnc4n3)c2)C1` [Example 34], the values for the EC50 in the experiment with Leishmania donovani [1] and in the experiment with Leishmania donovani [2] were 0.251 to 10 µM and 0.126 to 10 µM, respectively.

As for `CC(C)(C)OC(=O)N1CCN(c2cnc3nc(-c4cc(NC(=O)N5CCCC5)ccc4F)ccn23)CC1` [Example 35, tert-butyl 4-(7-(2-fluoro-5-(pyrrolidine-1-carboxamido)phenyl)imidazo[1,2-a]pyrimidin-3-yl)piperazine-1-carboxylate], the EC50 is 0.251 to 10 µM in the experiment with Leishmania donovani [1] and 0.126 to 10 µM in the experiment with Leishmania donovani [2].

As to `CN1CCN(c2cnc3nc(-c4cc(NC(=O)N5CCCC5)ccc4F)ccn23)CC1` [Example 36, N-(4-fluoro-3-(3-(4-methylpiperazin-1-yl)imidazo[1,2-a]pyrimidin-7-yl)phenyl)pyrrolidine-1-carboxamide], the EC50 with Leishmania donovani [1] was 12.6 to 20 µM; in the experiment with Leishmania donovani [2] it was 0.126 to 10 µM.

Take `Cc1nc(C)c(C(=O)Nc2ccc(F)c(-c3ccn4c(N5CCOCC5)cnc4n3)c2)o1` [Example 39, N-(4-fluoro-3-(3-morpholinoimidazo[1,2-a]pyrimidin-7-yl)phenyl)-2,4-dimethyloxazole-5-carboxamide]: the EC50 in the experiment on Leishmania donovani [1] is 0.251 to 10 µM; with Leishmania donovani [2], 0.126 to 10 µM.

With `C[C@H]1CN(c2cnc3nc(-c4cc(NC(=O)N5CCCC5)ccc4F)ccn23)CCO1` [Example 40, (S)—N-(4-fluoro-3-(3-(2-methylmorpholino)imidazo[1,2-a]pyrimidin-7-yl)phenyl)pyrrolidine-1-carboxamide], the figures for the EC50 in the experiment on Leishmania donovani [1] and with Leishmania donovani [2] were 0.251 to 10 µM and 0.126 to 10 µM, respectively.

Consider `CC1(C)CN(c2cnc3nc(-c4cc(NC(=O)N5CCCC5)ccc4F)ccn23)CCO1` [Example 41, N-(3-(3-(2,2-dimethylmorpholino)imidazo[1,2-a]pyrimidin-7-yl)-4-fluorophenyl)pyrrolidine-1-carboxamide], for which the EC50 was 0.251 to 10 µM in the experiment with Leishmania donovani [1] and 0.126 to 10 µM with Leishmania donovani [2].

For the compound `CC1(C)COCCN1c1cnc2nc(-c3cc(NC(=O)N4CCCC4)ccc3F)ccn12` [Example 42, N-(3-(3-(3,3-dimethylmorpholino)imidazo[1,2-a]pyrimidin-7-yl)-4-fluorophenyl)pyrrolidine-1-carboxamide], the results for the EC50 in the experiment with Leishmania donovani [1] and with Leishmania donovani [2] were 0.251 to 10 µM and 0.126 to 10 µM, respectively.

Consider `CN1CCOCC1c1cnc2nc(-c3cc(NC(=O)N4CCCC4)ccc3F)ccn12` (stereo not drawn) [Example 43, N-(4-fluoro-3-(3-(4-methylmorpholin-3-yl)imidazo[1,2-a]pyrimidin-7-yl)phenyl)pyrrolidine-1-carboxamide], for which the figures for the EC50 with Leishmania donovani [1] and with Leishmania donovani [2] were 0.251 to 10 µM and 0.126 to 10 µM, respectively.

As for `CC(C)(C)OC(=O)N1CCOCC1c1cnc2nc(-c3cc(NC(=O)N4CCCC4)ccc3F)ccn12` (stereo not drawn) [Example 44, tert-butyl 3-(7-(2-fluoro-5-(pyrrolidine-1-carboxamido)phenyl)imidazo[1,2-a]pyrimidin-3-yl)morpholine-4-carboxylate], the EC50 in the experiment on Leishmania donovani [1] was 0.251 to 10 µM; in the experiment with Leishmania donovani [2] it was 0.126 to 10 µM.

`O=C(Nc1cc(-c2ccn3c(N4CCOCC4)cnc3n2)c(F)cc1F)N1CCCC1` [Example 46, N-(2,4-difluoro-5-(3-morpholinoimidazo[1,2-a]pyrimidin-7-yl)phenyl)pyrrolidine-1-carboxamide]: the EC50 in the experiment with Leishmania donovani [1] is more than 50.1 µM; in the experiment with Leishmania donovani [2], 0.126 to 10 µM.

Consider `COC1CCN(c2cnc3nc(-c4cc(NC(=O)N5CCCC5)ccc4F)ccn23)CC1` [Example 47, N-(4-fluoro-3-(3-(4-methoxypiperidin-1-yl)imidazo[1,2-a]pyrimidin-7-yl)phenyl)pyrrolidine-1-carboxamide], for which the EC50 is 0.251 to 10 µM with Leishmania donovani [1] and 0.126 to 10 µM with Leishmania donovani [2].

Consider `CC(=O)N1CCN(c2cnc3nc(-c4cc(NC(=O)N5CCCC5)ccc4F)ccn23)CC1` [Example 48, N-(3-(3-(4-acetylpiperazin-1-yl)imidazo[1,2-a]pyrimidin-7-yl)-4-fluorophenyl)pyrrolidine-1-carboxamide], for which the figures for the EC50 in the experiment with Leishmania donovani [1] and in the experiment with Leishmania donovani [2] were more than 50.1 µM and 0.126 to 10 µM, respectively.

The values above are taken from patent US10479792B2, “Compounds” (GlaxoSmithKline Intellectual Property Development Limited, priority 2015, dated 2019).
